Test results reported in publication PMC3440086, “Profiling Environmental Chemicals for Activity in the Antioxidant Response Element Signaling Pathway Using a High Throughput Screening Approach” (Environmental Health Perspectives, 2012).
“Also recorded” adds a separate entry of the source. Where a name gives a salt, the structure may show the parent alone. Read-outs that look alike come from different tables or passages of the source.

Legend:
[1] = tested on: antioxidant response element (ARE) signaling pathway; test: ARE-bla β-lactamase reporter gene assay in HepG2 cells (qHTS); type: cell-based, human; conditions: for EC50: read-out: ARE-bla EC50
[2] = tested on: Nrf2-dependent ARE transcriptional activity; test: ARE-luc luciferase reporter gene assay in HepG2 cells (qHTS); type: cell-based; set-up: Emax: reference not given here; conditions: for EC50: read-out: ARE-luc EC50
mutated ARE = type: cell-based
[3] = tested on: mitogen-activated protein kinase (MAPK) pathway; conditions: cited from earlier work
olfactory mucosa = tested on: olfactory mucosa; set-up: method as in Genter et al. 2002; conditions: olfactory mucosa of treated rats; ref Genter et al. 2002; cited from earlier work
[4] = tested on: hypoxia-inducible factor 1; set-up: method as in Xia et al. 2009; conditions: β-lactamase reporter gene assay; ref Xia et al. 2009; cited from earlier work
ROS = tested on: ROS; set-up: method as in Chen et al. 2009; conditions: cell-based testing; ref Chen et al. 2009; cited from earlier work
[5] = Homo sapiens, HepG2, read-out: ARE-bla Efficacy
[6] = Homo sapiens, HepG2, read-out: ARE-luc Efficacy
[7] = Homo sapiens, HepG2, confirmation/follow-up studies, activation of ARE reporter as % of positive control (β-napthoflavone), read-out: ARE-bla Efficacy
[8] = Homo sapiens, confirmation/follow-up studies, HepG2, 16 hr exposure, mean ± SD
[9] = Homo sapiens, HepG2, confirmation/follow-up studies, activation of ARE reporter as % of positive control (β-napthoflavone), read-out: ARE-luc Efficacy
[10] = confirmation/follow-up studies, HepG2, mean ± SD
[11] = follow-up studies, up to 46 µM, listed as iodochlorohydroxyquinoline
[12] = confirmation/follow-up studies, HepG2, 16 hr exposure, mean ± SD
[13] = follow-up studies, up to 46 µM, listed as quinoline
[14] = confirmation/follow-up studies, activation of ARE reporter as % of positive control (β-napthoflavone)
[15] = primary qHTS screening, 0.59 nM to 92 µM
[16] = confirmation/follow-up studies, […]

Oc1cccc2cccnc12 [8-Hydroxyquinoline]
activity in ARE-bla assay (words) [1]: active; also recorded: demonstrated activity | EC50 ([1]; Homo sapiens, HepG2, 16 h): 16.1 ± 5.1 µM | Emax [1, 5]: 53% | activity in ARE-luc assay (words) [2]: active; also recorded: demonstrated activity | EC50 ([2]; Homo sapiens, HepG2, 16 h): 10.1 ± 3.9 µM | Emax [2, 6]: 200% | ARE-bla mutant IC50 (mutated ARE): inactive | induction of MAPK pathway [3]: shown to induce

CCc1cccc(CC)c1N(COC)C(=O)CCl [Alachlor]
Emax [1, 7]: 106% | EC50 [1, 8]: 5.9 ± 1.7 µM | activity in ARE-bla assay (words) ([1]; follow-up studies, up to 46 µM): active; also recorded: demonstrated activity | Emax [2, 9]: 127% | EC50 [2, 8]: 19.9 ± 7.1 µM | activity in ARE-luc assay (words) ([2]; follow-up studies, up to 46 µM): active; also recorded: demonstrated activity | ARE-bla mutant IC50 (mutated ARE; [10]): inactive | genes associated with the generation of ROS and resulting oxidative damage (olfactory mucosa): up-regulation

Oc1c(I)cc(Cl)c2cccnc12 [Iodochlorohydroxyquinoline]
Emax [1, 7]: 41% | EC50 [1, 8]: 17.2 ± 6 µM | activity in ARE-bla assay (words) ([1]; follow-up studies, up to 46 µM): active | activity in ARE-bla assay (words) [1, 11]: demonstrated activity | Emax [2, 9]: 147% | EC50 [2, 8]: 10 ± 1.2 µM | activity in ARE-luc assay (words) ([2]; follow-up studies, up to 46 µM): active | activity in ARE-luc assay (words) [2, 11]: demonstrated activity | ARE-bla mutant Efficacy (mutated ARE; confirmation/follow-up studies, normalized to DMSO (0%) and ARE-bla maximal β-napthoflavone response (100%)): 21% | activity in ARE-bla-mut assay (words) (mutated ARE; [11]): may exhibit autofluorescence; also recorded: active; also recorded: demonstrated activity | activation of hypoxia-inducible factor 1 [4]: activate | generation of ROS (ROS): confirmed

CN(C)c1ccc(N=O)cc1 [N,N-Dimethyl-p-nitrosoaniline]
EC50 ([1]; Homo sapiens, HepG2, 16 h): 9.9 ± 3.4 µM | Emax [1, 5]: 82% | EC50 ([2]; Homo sapiens, HepG2, 16 h): 29.2 ± 2 µM | Emax [2, 6]: 626% | ARE-bla mutant IC50 (mutated ARE): inactive

CN(C)c1ccc(N)cc1 [N,N-Dimethyl-p-phenylenediamine]
Emax ([1]; Homo sapiens, HepG2, confirmation/follow-up studies, […], read-out: ARE-bla Efficacy): 80% | EC50 [1, 8]: 9.6 ± 0.6 µM | Emax ([2]; Homo sapiens, HepG2, confirmation/follow-up studies, […], read-out: ARE-luc Efficacy): 24% | EC50 [2, 8]: 11.8 ± 4.4 µM | ARE-bla mutant IC50 (mutated ARE; [10]): inactive

CNc1ccc(O)cc1 [N-Methyl-p-aminophenol sulfate]
Emax [1, 7]: 37% | EC50 [1, 8]: 13.6 ± 3.2 µM | Emax [2, 9]: 202% | EC50 [2, 8]: 24.6 ± 9.2 µM | ARE-bla mutant IC50 (mutated ARE): inactive

NC(=S)Nc1ccccc1 [Phenylthiourea]
ARE-bla EC50 [1, 12]: inactive | ARE-luc EC50 [2, 12]: inactive | ARE-bla mutant IC50 (mutated ARE; [10]): inactive

c1ccc2ncccc2c1 [Quinoline]
ARE-bla EC50 [1, 12]: inactive | activity in ARE-bla assay (words) ([1]; follow-up studies, up to 46 µM): inactive in all assays | activity in ARE-bla assay (words) [1, 13]: inactive across all assays | ARE-luc EC50 [2, 12]: inactive | activity in ARE-luc assay (words) ([2]; follow-up studies, up to 46 µM): inactive in all assays | activity in ARE-luc assay (words) [2, 13]: inactive across all assays | ARE-bla mutant IC50 (mutated ARE): inactive | activity in ARE-bla-mut assay (words) (mutated ARE): inactive across all assays; also recorded: inactive in all assays

Clc1ccc(C(c2ccc(Cl)cc2)C(Cl)Cl)cc1 [Rhothane (TDE), Tetrachlorodiphenylethane]
EC50 [1, 12]: 16.4 ± 7.3 µM | ARE-bla Efficacy [1, 14]: 43% | EC50 [2, 12]: 13.5 ± 3.3 µM | ARE-luc Efficacy [2, 14]: 32% | activity in ARE-luc assay (words) ([2]; follow-up studies, up to 46 µM): active | activity in ARE-luc assay (words) [2, 15]: inactive | ARE-bla mutant IC50 (mutated ARE; [10]): inactive

C[C@H](CCC(=O)[O-])[C@H]1CC[C@H]2[C@@H]3[C@H](O)C[C@@H]4C[C@H](O)CC[C@]4(C)[C@H]3C[C@H](O)[C@]12C.[Na+] [Sodium Cholate]
ARE-bla EC50 [1, 12]: inactive | ARE-luc EC50 [2, 12]: inactive | ARE-bla mutant IC50 (mutated ARE; [10]): inactive

O=c1n(CC2CO2)c(=O)n(CC2CO2)c(=O)n1CC1CO1 (stereo not drawn) [Teroxironum]
ARE-bla Efficacy [1]: 119 | EC50 [1]: 5.9 ± 1.9 µM | ARE-luc Efficacy [2]: 1541 | EC50 [2]: 27.1 ± 1.8 µM | ARE-bla mutant IC50 (mutated ARE): inactive

C=CC(=O)OCCOCCOCCOCCOC(=O)C=C [Tetraethylene glycol diacrylate]
Emax [1, 7]: 53% | EC50 [1, 8]: 9.5 ± 4.8 µM | Emax [2, 9]: 288% | EC50 [2, 8]: 29.2 ± 2 µM | ARE-bla mutant IC50 (mutated ARE; [10]): inactive

CN(C)C(=S)SSC(=S)N(C)C [Tetramethylthiuram disulfide]
EC50 [1, 12]: 17.2 ± 4.9 µM | ARE-bla Efficacy [1, 16]: 35% | EC50 [2, 12]: 30.6 ± 5.2 µM | ARE-luc Efficacy [2, 16]: 265% | ARE-bla mutant IC50 (mutated ARE; [10]): inactive

CC(C)CC(C)Nc1ccc(Nc2ccccc2)cc1 (stereo not drawn) [n-(1,3-Dimethylbutyl)-n`-phenyl-p-phenylenediamine]
Emax [1, 7]: 89% | EC50 [1, 8]: 17.3 ± 5 µM | activity in ARE-luc assay (words) ([2]; follow-up studies, up to 46 µM): inactive | activity in ARE-luc assay (words) [2, 15]: active | ARE-bla mutant IC50 (mutated ARE; [10]): inactive

Nc1ccccc1O [o-Aminophenol]
EC50 ([1]; Homo sapiens, HepG2, 16 h): 6.8 ± 4.1 µM | Emax [1, 5]: 95% | EC50 ([2]; Homo sapiens, HepG2, 16 h): 26.2 ± 3.3 µM | Emax [2, 6]: 234% | ARE-bla mutant IC50 (mutated ARE): inactive

Nc1ccccc1N [o-Phenylenediamine]
EC50 [1, 12]: 7.2 ± 4.1 µM | ARE-bla Efficacy [1, 16]: 72% | EC50 [2, 12]: 27.3 ± 4.7 µM | ARE-luc Efficacy [2, 16]: 151% | ARE-bla mutant IC50 (mutated ARE; [10]): inactive

ClC(Cl)=C(c1ccc(Cl)cc1)c1ccc(Cl)cc1 [p,p' -DDE, Dichlorodiphenyl dichloroethylene]
ARE-bla EC50 [1, 12]: inactive | ARE-luc EC50 [2, 12]: inactive | ARE-bla mutant IC50 (mutated ARE; [10]): inactive

O=Nc1ccc(Nc2ccccc2)cc1 [p-Nitrosodiphenylamine]
ARE-bla Efficacy [1]: 31 | EC50 [1]: 9.7 ± 4.1 µM | ARE-luc Efficacy [2]: 71 | EC50 [2]: 21.7 ± 3.7 µM | ARE-bla mutant IC50 (mutated ARE): inactive
